Measured values from patent US4560703A, “Clavulone derivatives, process for preparing the same, and use of said compounds” (Fujisawa Pharmaceutical Co., Ltd., priority 1982, dated 1985).

Columns and labels:
[1] = system: leukemia L-1210 cells; assay: Inhibitory activity on proliferation of leukemia L-1210 cells; type: cell-based, mice; conditions: Mus musculus, L1210, 96 h, 4 days, read-out: Growth Rate (%) (viable cells, control = 100); for activity at 0.1 µg/mL: 0.1 μg/ml; for activity at 0.4 µg/mL: 0.4 μg/ml; for activity at 1 µg/mL: 1.0 μg/ml; for activity at 0.2 µg/mL: 0.2 μg/ml
Experimental: (§1) Moreover, the anti-tumor activities of the clavulone derivatives (I) were tested by the inhibitory activity on propagation of leukemia L-1210 cells, DBA/MC fibrosarcoma cells, and B-16 melanoma cells in mice and also apothanasia effect of mice implanted with leukemia P388 cells and Ehrlich carcinoma cells as in the following experiments.
The test compounds (clavulone-1, -2 and -3) were each dissolved in ethanol and diluted with a medium (RPMI-1640) in a prescribed concentration. Said RPMI-1640 medium contained 10% by weight of fetal calf serum.
Leukemia L-1210 cells (cell concentration: 1×10^5 cells/ml) were inoculated in the RPMI-1640 medium containing the test compound (0.1 to 4.0 μg/ml) and cultured under the conditions of 5% CO2 in air, saturated humidity and at 37° C. for 4 days.
Immediately after the cultivation, the L-1210 cells were stained with trypan blue. Number of viable cells (i.e. cells which were not stained with trypan blue) was counted, and the number of viable cells was compared with that in the control group (no drug was added). The results are shown in Table 2, wherein the number of viable cells in the control group was counted as 100.

[2] = system: granulation tissue; assay: Inhibitory effect on proliferation of granulation tissue (fertile egg method); type: in vivo, Babcock strain chickens (fertile eggs); conditions: for inhibitory effect on proliferation of granulation tissue (in words): fertile egg method
Experimental: The anti-inflammatory activity was tested by the inhibitory effect on proliferation of granulation tissue which is one of the tests for determining anti-inflammatory activity as follows:
Fertile eggs of Babcock strain chickens were incubated at 38° C. for 9 days. The shell and shell membrane were then removed according to the method of D'arcy et al (cf. D'arcy, P. F. et al, Brit. J. Pharmac. Chemother., 29, 378 (1967). A sterile filter paper disc (diameter: 9 mm) was implanted on the chorio-allantoic membrane and the opening in the shell was sealed with cellophane tape. The eggs were then reincubated for 4 days and at the end of this period, the filter paper disc with granulation tissue was dissected from the chorio-allantoic membrane and then dried at 60° C. for 12 hours. In order to assess the actual amount of granulation tissue present, the weight of filter paper disc which was used in this experiment was subtracted from the total weight of the disc plus granulation tissue.
The test compound was dissolved in an organic solvent (acetone) and 20 μl of the solution was applied on the each disc. The disc was dried and then used in this test. The mean weight of the granulation tissue in each group was compared with that of the control group which was treated with a vehicle alone.
Clavulone-1, clavulone-2, clavulone-3, clavulone-4 and clavulone-5 were used as the test compounds.

[3] = system: DBA/MC fibrosarcoma cells; assay: Inhibitory activity on proliferation of DBA/MC fibrosarcoma cells; type: cell-based, mice; conditions: Mus musculus, 48 hours, read-out: Inhibitory Rate (%); for inhibition at 3 µg/mL: 3.0 μg/ml; for inhibition at 20 µg/mL: 20.0 μg/ml; for inhibition at 30 µg/mL: 30.0 μg/ml
Experimental: as §1
The test compounds (clavulone derivatives) were each dissolved in ethanol and diluted with a phosphate-buffer physiological saline solution and further diluted with an eagle's MEM medium in a prescribed concentration. Said eagle's MEM medium contained 20% by weight of fetal calf serum and 0.4% by weight of lactalubumin hydrolysates.
DBA/MC Fibrosarcoma cells (cell concentration: 2.5×10^4 cells/ml) were floated on the eagle's MEM medium and cultured under the conditions of 5% CO2 in air, saturated humidity and at 37° C. for 24 hours. Thereafter, the medium was replaced with the above test compound-containing medium and then it was cultured under the same conditions for 48 hours.
Immediately after the cultivation, the DBA/MC cells were fised with methanol and stained with Giemsa solution. The stained cells were counted with a microscope, and the number of stained cells was compared with that of the control group (no test compound was added). The inhibitory rate was calculated by the following equation: [formula]

[4] = system: Ehrlich carcinoma cells; assay: Anti-tumor effect in mice implanted with Ehrlich carcinoma cells; type: in vivo, female ICR strain mice; conditions: for MST / Survivors on 60th day/number of mice in one group / I.L.S. (%): 1st-4th day; for I.L.S. (%): 25 or more = effective
Experimental: Six or twelve female ICR strain mice (6 weeks old, weighing 22.2-26.8 g) were used.
The test drug was prepared by mixing clavulone-2 with gum arabic, suspending the mixture in a sterilized saline solution in a concentration of clavulone-2 of 10, 18 or 25 mg/10 ml.
Ehrlich carcinoma cells were serially passaged in an ascites form in ICR strain mice. The tumor cells were harvested from ICR strain mice on 6th day after inoculation, washed with and resuspended in Hank's solution in a concentration of 5×10^5 cells/ml.
Tumor cells (1×10^5 cells/0.2 ml/mouse) were implanted intraperitoneally. The test drug (clavulone-2, 10 ml/kg) was injected intraperitoneally once a day from first to 4th day after the implantation of tumor cells. Control mice were injected with a saline solution in the same as above.
The anti-tumor effect of clavulone-2 was evaluated by means of I.L.S. (%) which was calculated by the following equation: [formula]

[5] = system: B-16 melanoma cells; assay: Anti-tumor effect on B-16 melanoma in mice; type: in vivo, C57BL/6 female mice; conditions: local injection
Experimental: C57BL/6 female mice (12 weeks old, weighing 18.4-21.6 g, each group: 10 animals) were used.
The test drug was prepared by dissolving clavulone-2 in ethanol and diluting with a saline solution in a concentration of clavulone-2 of 100 μg/ml.
B-16 melanoma cells were serially passaged in subcutaneously implanted form in C57BL/6 mice. The tumor cells were dissected out from C57BL/6 mice on 16th day after implantation, weighed, and mixed homogeneously with Hank's solution in a ratio of 1:9 by weight.
Tumor cells (2×10^5 cells/0.05 ml/mouse) were implanted subcutaneously. The test drug (clavulone-2, 10 μg/0.1 ml) was injected locally into tumor cell-implanted site for three weeks except the weekend. Control mice were injected with a vehicle (1% ethanol in saline solution) in the same as above.
After 21 days from the implantation of tumor cells, mice were killed by chloroform anethesia, and the tumor masses were removed and weighed. The anti-tumor effect of clavulone-2 was evaluated by means of growth inhibition rate calculated by the following equation:
Growth inhibition rate (%)=(1-T/C)×100
T: Mean tumor weight of mice treated with the test compound-containing solution
C: Mean tumor weight of mice treated with the vehicle solution.

[6] = system: leukemia P388 cells; assay: Apothanasia effect in mice implanted with leukemia P388 cells; type: in vivo, BDFI male mice; conditions: intraperitoneal, once a day, 1st-4th and 7th-11th day
Experimental: Clavulone-2 was mixed with gum arabic in the ratio of 1.6:1 by weight and was mixed with a physiological saline solution in a prescribed concentration to give a test compound solution.
BDFI male mice (5 weeks old, weighing 22.0-24.4 g, 6 animals per group) were used.
Each mice was inoculated intraperitoneally with leukemia P388 cells (cell concentration: 1×10^7 cells/ml) in 0.2 ml Hank's solution. A solution of a test compound in a physiological saline solution was injected intraperitoneally once a day from the first day to 4th day and also from 7th day to 11th day after inoculation of the tumor cells. The control group was given with a vehicle (a physiological saline solution) alone in the same way.
The apothanasia effect of the test compound was estimated by comparing mean survival time between the medicated group and the control group by the following equation: [formula]

[7] = 10 μg/0.1 ml, three weeks except weekend, 21 days

Row | SMILES | activity at 0.1 µg/mL [1] [%] | activity at 0.4 µg/mL [1] [%] | activity at 1 µg/mL [1] [%] | Inhibitory rate (%) ([2]; Dose 30, on filter paper disc) | Inhibitory rate (%) ([2]; Dose 100, on filter paper disc) | inhibitory effect on proliferation of granulation tissue (in words) [2] | inhibition at 3 µg/mL [3] [%] | inhibition at 20 µg/mL [3] [%] | also measured
1 | CCCCC/C=C\CC1(OC(C)=O)C=CC(=O)/C1=C/C=C\C(CCC(=O)OC)OC(C)=O (centres unmarked) [Clavulone-1] | 100 | 24.7 | 0 | 15.8 | 30.4 | showed the inhibitory effect on proliferation of granulation tissue | 50 | 100 | 
2 | CCCCC/C=C\CC1(OC(C)=O)C=CC(=O)/C1=C/C=C/C(CCC(=O)OC)OC(C)=O (centres unmarked) [Clavulone-2] | 61.5 | 16.9 | 0 | 10.1 | 21.0 | showed the inhibitory effect on proliferation of granulation tissue | 0 | 100 | MST ([4]; 10 mg/kg, intraperitoneal): 26.5 days; Survivors on 60th day/number of mice in one group ([4]; 10 mg/kg, intraperitoneal): 2/6; I.L.S. (%) ([4]; 10 mg/kg, intraperitoneal): 23%; animals survived 60 days after implantation of tumor cells ([4]; 18 mg/10 ml/kg): 50%; MST ([4]; 18 mg/kg, intraperitoneal): 50.0 days; Survivors on 60th day/number of mice in one group ([4]; 18 mg/kg, intraperitoneal): 3/6; I.L.S. (%) ([4]; 18 mg/kg, intraperitoneal): 133%; activity against Ehrlich ascites tumor in vivo (in words) ([4]; intraperitoneal): high activity against Ehrlich ascites tumor in vivo; activity at 0.2 µg/mL [1]: 55.4%; Growth inhibition rate (%) [5, 7]: 73%; Mean tumor weight (g; ± S.E.) [5, 7]: 0.882 ± 0.388 g; number of survivors 21th day after implantation of tumor cells ([5]; 10 μg/0.1 ml, group of 10 animals): 10; Apothanasia effect (%) ([6]; 4.0 mg/kg): 130%; Apothanasia effect (%) ([6]; 8.0 mg/kg): 130%
3 | CCCCC/C=C\CC1(OC(C)=O)C=CC(=O)/C1=C\C=C\C(CCC(=O)OC)OC(C)=O (centres unmarked) [Clavulone-3] | 87.5 | 17.2 | 0 | 26.1 | 31.0 | showed the inhibitory effect on proliferation of granulation tissue | 0 | 100 | activity at 0.2 µg/mL [1]: 52%
4 | COC(=O)CCC(/C=C/C=C1/C(=O)C=CC1(C/C=C\CCCCCOC(C)=O)OC(C)=O)OC(C)=O (centres unmarked) [Clavulone-4] |  |  |  | 18.3 | 34.2 | showed the inhibitory effect on proliferation of granulation tissue | 0 | 100 | 
5 | COC(=O)CCC(/C=C/C=C1\C(=O)C=CC1(C/C=C\CCCCCOC(C)=O)OC(C)=O)OC(C)=O (centres unmarked) [Clavulone-5] |  |  |  | 18.2 | 31.6 | showed the inhibitory effect on proliferation of granulation tissue | 0 | 100 | 
6 | COC(=O)CCC(/C=C\C=C1\C(=O)C=CC1(C/C=C\CCCCCOC(C)=O)OC(C)=O)OC(C)=O (centres unmarked) [Clavulone-6] |  |  |  |  |  |  | 90 | 100 | Growth inhibition rate (%) [5, 7]: 73%; growth of B-16 melanoma in mice (in words) ([5]; 21 days): regressed significantly; inhibition at 30 µg/mL [3]: 100%
7 | CCCCCCCCC1CCC(=O)C1CCCC(CCC(=O)OC)OC(C)=O (centres unmarked) [Clavulone-13] |  |  |  |  |  |  | 0 |  | inhibition at 30 µg/mL [3]: 100%
